Patent US5244917A, “Substituted naphthofurans as anti-inflammatory agents” (The DuPont Merck Pharmaceutical Company, priority 1992, dated 1993)

Assays:
A23187-induced ear edema = assay: A23187 Ear Edema Model (murine ear edema protocol); format: in vivo, mouse (male CF-1); details: 100 μg/ear topical in acetone; A23187 10 μg/ear; 6 h; 6 mm punch biopsy weight
Protocol: To measure anti-inflammatory activities of the investigational compounds the following standard murine ear edema protocol was used. Edema was induced by the calcium ionophore, A23187 (10 μg/ear) [Marks, F., Furstenberger, G., Kownatzki, E., Prostaglandin E Mediated Stimulation of Mouse Epidermis in vivo by Divalent Cation Ionophore A23187 and by Tumor Promotor TPA, Cancer Res., 41, 696-702 (1981)]. Male CF-1 (Charles River) 18-20 grams were used. Investigational compounds (in acetone at 100 μg/ear) were applied to one ear just prior to application of the inflammagen (A23187). Six hours after A23187 application, edema was determined by comparing the weights of 6 mm punch biopsies from control (solvent) and inflammagen-treated ears. Percent inhibition was calculated using standard equations.

Platelet phospholipase C = assay: Platelet Phospholipase C Assay; format: biochemical; details: 100,000×g supernatant extract of platelet cells; 3H phosphatidylinositol substrate; mantissa only, the power of ten is printed apart; read-out: PLC IC50
Protocol: Platelet phospholipase C was measured using a 100,000×g supernatant extract of platelet cells as the enzyme preparation. The assay mixture consisted of (in final concentrations): ^3 H myoinositol phosphatidylinositol, ([…], 0.1Ci), CaCl2 (5 mM), Tris acetate buffer (60 mM, pH 4.5-7.5), sodium deoxycholate (2 mg/ml), platelet supernatant protein heated at 100° C. for 5 min (1 mg/ml), all in a total volume of […].
The assay was performed according to the method of Rittenhouse [Rittenhouse, S., Preparation of Selectively Labeled Phosphoinositol and Assay of Phosphoinositol-specific Phospholipase C in Methods in Enzymology, Lands, W. and Smith, W., eds., 86, 3-11 (1982)]. The hydrolysis of substrate to water soluble product was calculated on the basis of the specific activity of the substrate. The activity of the compounds was expressed as the percent inhibition of control (no compound) PLC hydrolysis. […] Arachidonic acid is the precursor of inflammagens such as leukotrienes and prostaglandins which are involved in the mediation of the inflammatory process.

Row | Compound | A23187 % inhibition (A23187-induced ear edema) | IC50 (Platelet phospholipase C)
1 | N#Cc1c(N)oc2c1c(Cc1ccccc1)c(O)c1ccccc12 [Example 1, 2-Amino-4-benzyl-3-cyano-5-hydroxynaphtho[1,2-b]furan] | 83% | 15 µM
2 | N#Cc1c(N)oc2c1c(Cc1ccccc1F)c(O)c1ccccc12 [Example 2, 2-amino-4-(2-fluoro)benzyl-3-cyano-5-hydroxynaphtho[1,2-b]furan] | 71% | 26 µM
3 | N#Cc1c(N)oc2c1c(Cc1ccc(F)cc1)c(O)c1ccccc12 [Example 4, 2-amino-4-(4-fluoro)benzyl-3-cyano-5-hydroxynaphtho[1,2-b]furan] | 58% | 120 µM
4 | COc1ccc2c(c1)c(O)c(Cc1ccccc1)c1c(C#N)c(N)oc12 [Example 11, 2-amino-4-benzyl-3-cyano-5-hydroxy-7-methoxynaphtho[1,2-b]furan] | 82% | 190 µM
5 | COc1ccc2c(O)c(Cc3ccccc3)c3c(C#N)c(N)oc3c2c1 [Example 12, 2-amino-4-benzyl-3-cyano-5-hydroxy-8-methoxynaphtho[1,2-b]furan] | – | 55 µM
6 | COc1ccc2c(O)c(Cc3ccccc3F)c3c(C#N)c(N)oc3c2c1 [Example 16, 2-amino-4-(2-fluoro)benzyl-3-cyano-5-hydroxy-8-methoxynaphtho[1,2-b]furan] | – | 56 µM
